Laboratory results published in patent publication US20220281848A1, “PYRAZOLE-SUBSTITUTED PYRROLIDINONES AS HERBICIDES” (FMC Corporation, priority 2019, published 2022).

Test system: plants
Experiment: Test D pre-emergence, other plants of Tables D1 and D3
Format: in vivo
Details: 20 DAA; for damage to plant (100=total damage to plant; 0=no damage to plant), BIDPI / damage to plant (100=total damage to plant; 0=no damage to plant), BRAPL / damage to plant (100=total damage to plant; 0=no damage to plant), CYPES / damage to plant (100=total damage to plant; 0=no damage to plant), EPHHL / damage to plant (100=total damage to plant; 0=no damage to plant), GLXMA / damage to plant (100=total damage to plant; 0=no damage to plant), IPOHE / damage to plant (100=total damage to plant; 0=no damage to plant), SORVU: preemergent; for CHEAL damage rating / GALAP damage rating / KCHSC damage rating / LOLPE damage rating / POAAN damage rating / STEME damage rating / VERPE damage rating: pre-emergence, 100=total damage, 0=no damage
Method: A formulation containing 50 g/L of the test chemical was prepared by dissolving the active ingredient in a mixture of organic solvents and emulsifier, details of which are provided in the table. This formulation was then mixed with a small, variable amount of acetone to aid dissolution, before addition of a 0.2% v/v aqueous solution of an adjuvant, as the aqueous diluent, to form an aqueous spray solution which contains a predetermined concentration of the active ingredient.
This aqueous spray solution was then sprayed onto plants including maize and wheat that had been seed treated with a herbicide safener, after one day's cultivation (for pre-emergence) or after about 12 days' cultivation (for post-emergence). The plants were grown from seeds sown in standard soil, placed in a glasshouse under controlled conditions (at 24/18° C. or 20/16° C., day/night; 16 h light; 65% humidity). After spray application the plants were then grown in a glasshouse under the same conditions and watered twice daily. After 15 d for post-emergence and 20 DAA for pre-emergence the test was evaluated (100=total damage to plant; 0=no damage to plant).

**Q.** For `CN1CC(c2cnn(C)c2C(F)(F)F)C(C(=O)Nc2cccc(F)c2F)C1=O` (racemic) [Compound 25], which “damage to plant (100=total damage to plant; 0=no damage to plant), BIDPI” value (rate 15) is on record?
**A.** 0

**Q.** And the “damage to plant (100=total damage to plant; 0=no damage to plant), BIDPI” value (rate 30)?
**A.** 0

**Q.** And the “damage to plant (100=total damage to plant; 0=no damage to plant), BIDPI” value (rate 60)?
**A.** 0

**Q.** What about the “damage to plant (100=total damage to plant; 0=no damage to plant), BIDPI” value (rate 130) of the same compound?
**A.** 0

**Q.** What about the “damage to plant (100=total damage to plant; 0=no damage to plant), BIDPI” value (rate 250) of the same compound?
**A.** 0

**Q.** What about the “damage to plant (100=total damage to plant; 0=no damage to plant), BIDPI” value (rate 500) of the same compound?
**A.** 0

**Q.** And the “damage to plant (100=total damage to plant; 0=no damage to plant), BRAPL” value (rate 15)?
**A.** 0

**Q.** What about the “damage to plant (100=total damage to plant; 0=no damage to plant), BRAPL” value (rate 30) of the same compound?
**A.** 0

**Q.** What about the “damage to plant (100=total damage to plant; 0=no damage to plant), BRAPL” value (rate 60) of the same compound?
**A.** 30

**Q.** What about the “damage to plant (100=total damage to plant; 0=no damage to plant), BRAPL” value (rate 130) of the same compound?
**A.** 80

**Q.** What about the “damage to plant (100=total damage to plant; 0=no damage to plant), BRAPL” value (rate 250) of the same compound?
**A.** 90

**Q.** What about the “damage to plant (100=total damage to plant; 0=no damage to plant), BRAPL” value (rate 500) of the same compound?
**A.** 90

**Q.** What about the CHEAL damage rating (Rates 15) of the same compound?
**A.** 0

**Q.** What about the CHEAL damage rating (Rates 30) of the same compound?
**A.** 0

**Q.** And the CHEAL damage rating (Rates 60)?
**A.** 0

**Q.** And the CHEAL damage rating (Rates 130)?
**A.** 0

**Q.** What about the CHEAL damage rating (Rates 250) of the same compound?
**A.** 20

**Q.** And the CHEAL damage rating (Rates 500)?
**A.** 50

**Q.** And the “damage to plant (100=total damage to plant; 0=no damage to plant), CYPES” value (rate 15)?
**A.** 0

**Q.** What about the “damage to plant (100=total damage to plant; 0=no damage to plant), CYPES” value (rate 30) of the same compound?
**A.** 0

**Q.** What about the “damage to plant (100=total damage to plant; 0=no damage to plant), CYPES” value (rate 60) of the same compound?
**A.** 0

**Q.** What about the “damage to plant (100=total damage to plant; 0=no damage to plant), CYPES” value (rate 130) of the same compound?
**A.** 0

**Q.** And the “damage to plant (100=total damage to plant; 0=no damage to plant), CYPES” value (rate 250)?
**A.** 0

**Q.** And the “damage to plant (100=total damage to plant; 0=no damage to plant), CYPES” value (rate 500)?
**A.** 0

**Q.** And the “damage to plant (100=total damage to plant; 0=no damage to plant), EPHHL” value (rate 15)?
**A.** 0

**Q.** And the “damage to plant (100=total damage to plant; 0=no damage to plant), EPHHL” value (rate 30)?
**A.** 0

**Q.** And the “damage to plant (100=total damage to plant; 0=no damage to plant), EPHHL” value (rate 60)?
**A.** 0

**Q.** What about the “damage to plant (100=total damage to plant; 0=no damage to plant), EPHHL” value (rate 130) of the same compound?
**A.** 0

**Q.** And the “damage to plant (100=total damage to plant; 0=no damage to plant), EPHHL” value (rate 250)?
**A.** 0

**Q.** What about the “damage to plant (100=total damage to plant; 0=no damage to plant), EPHHL” value (rate 500) of the same compound?
**A.** 0

**Q.** What about the GALAP damage rating (Rates 15) of the same compound?
**A.** 0

**Q.** What about the GALAP damage rating (Rates 30) of the same compound?
**A.** 0

**Q.** And the GALAP damage rating (Rates 60)?
**A.** 0

**Q.** And the GALAP damage rating (Rates 130)?
**A.** 0

**Q.** And the GALAP damage rating (Rates 250)?
**A.** 0

**Q.** And the GALAP damage rating (Rates 500)?
**A.** 0

**Q.** What about the “damage to plant (100=total damage to plant; 0=no damage to plant), GLXMA” value (rate 15) of the same compound?
**A.** 0

**Q.** What about the “damage to plant (100=total damage to plant; 0=no damage to plant), GLXMA” value (rate 30) of the same compound?
**A.** 0

**Q.** What about the “damage to plant (100=total damage to plant; 0=no damage to plant), GLXMA” value (rate 60) of the same compound?
**A.** 0

**Q.** What about the “damage to plant (100=total damage to plant; 0=no damage to plant), GLXMA” value (rate 130) of the same compound?
**A.** 0

**Q.** And the “damage to plant (100=total damage to plant; 0=no damage to plant), GLXMA” value (rate 250)?
**A.** 0

**Q.** What about the “damage to plant (100=total damage to plant; 0=no damage to plant), GLXMA” value (rate 500) of the same compound?
**A.** 0

**Q.** What about the “damage to plant (100=total damage to plant; 0=no damage to plant), IPOHE” value (rate 15) of the same compound?
**A.** 0

**Q.** And the “damage to plant (100=total damage to plant; 0=no damage to plant), IPOHE” value (rate 30)?
**A.** 0

**Q.** And the “damage to plant (100=total damage to plant; 0=no damage to plant), IPOHE” value (rate 60)?
**A.** 0

**Q.** And the “damage to plant (100=total damage to plant; 0=no damage to plant), IPOHE” value (rate 130)?
**A.** 0

**Q.** And the “damage to plant (100=total damage to plant; 0=no damage to plant), IPOHE” value (rate 250)?
**A.** 0

**Q.** And the “damage to plant (100=total damage to plant; 0=no damage to plant), IPOHE” value (rate 500)?
**A.** 0

**Q.** And the KCHSC damage rating (Rates 15)?
**A.** 0

**Q.** And the KCHSC damage rating (Rates 30)?
**A.** 0

**Q.** What about the KCHSC damage rating (Rates 60) of the same compound?
**A.** 0

**Q.** What about the KCHSC damage rating (Rates 130) of the same compound?
**A.** 0

**Q.** And the KCHSC damage rating (Rates 250)?
**A.** 0

**Q.** And the KCHSC damage rating (Rates 500)?
**A.** 0

**Q.** What about the LOLPE damage rating (Rates 15) of the same compound?
**A.** 0

**Q.** What about the LOLPE damage rating (Rates 30) of the same compound?
**A.** 0

**Q.** And the LOLPE damage rating (Rates 60)?
**A.** 0

**Q.** And the LOLPE damage rating (Rates 130)?
**A.** 0

**Q.** And the LOLPE damage rating (Rates 250)?
**A.** 0

**Q.** What about the LOLPE damage rating (Rates 500) of the same compound?
**A.** 0

**Q.** And the POAAN damage rating (Rates 15)?
**A.** 0

**Q.** And the POAAN damage rating (Rates 30)?
**A.** 0

**Q.** What about the POAAN damage rating (Rates 60) of the same compound?
**A.** 0

**Q.** And the POAAN damage rating (Rates 130)?
**A.** 0

**Q.** And the POAAN damage rating (Rates 250)?
**A.** 0

**Q.** What about the POAAN damage rating (Rates 500) of the same compound?
**A.** 0

**Q.** What about the “damage to plant (100=total damage to plant; 0=no damage to plant), SORVU” value (rate 15) of the same compound?
**A.** 0

**Q.** And the “damage to plant (100=total damage to plant; 0=no damage to plant), SORVU” value (rate 30)?
**A.** 0

**Q.** And the “damage to plant (100=total damage to plant; 0=no damage to plant), SORVU” value (rate 60)?
**A.** 0

**Q.** What about the “damage to plant (100=total damage to plant; 0=no damage to plant), SORVU” value (rate 130) of the same compound?
**A.** 0

**Q.** What about the “damage to plant (100=total damage to plant; 0=no damage to plant), SORVU” value (rate 250) of the same compound?
**A.** 0

**Q.** What about the “damage to plant (100=total damage to plant; 0=no damage to plant), SORVU” value (rate 500) of the same compound?
**A.** 0

**Q.** What about the STEME damage rating (Rates 15) of the same compound?
**A.** 0

**Q.** What about the STEME damage rating (Rates 30) of the same compound?
**A.** 0

**Q.** What about the STEME damage rating (Rates 60) of the same compound?
**A.** 0

**Q.** What about the STEME damage rating (Rates 130) of the same compound?
**A.** 0

**Q.** What about the STEME damage rating (Rates 250) of the same compound?
**A.** 0

**Q.** What about the STEME damage rating (Rates 500) of the same compound?
**A.** 50

**Q.** What about the VERPE damage rating (Rates 15) of the same compound?
**A.** 0

**Q.** What about the VERPE damage rating (Rates 30) of the same compound?
**A.** 0

**Q.** What about the VERPE damage rating (Rates 60) of the same compound?
**A.** 0

**Q.** What about the VERPE damage rating (Rates 130) of the same compound?
**A.** 0

**Q.** And the VERPE damage rating (Rates 250)?
**A.** 0

**Q.** What about the VERPE damage rating (Rates 500) of the same compound?
**A.** 10
